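Interpolation was linear, between the two tested concentrations surrounding the appropriate level; five concentrations were tested over 48 hours in 96-well plates. Here, GI50 denotes the concentration required for 50% inhibition of growth.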 Calls of active or inactive are those of the source. Rule as the data show it: active = GI50 up to about 1.1 µM and inactive = higher.
Assays:
Experiment in all cases: NCI anticancer screen, dose series, 48 h
HCT-15 = test system: HCT-15
OVCAR-4 = test system: OVCAR-4
A498 = test system: A498
K562 = test system: K562
SF-295 = test system: SF-295
DU-145 = test system: DU-145
NCI-H460 = test system: NCI-H460
NCI-H23 = test system: NCI-H23
COLO 205 = test system: COLO 205
TK-10 = test system: TK-10
MOLT-4 = test system: MOLT-4
NCI-H522 = test system: NCI-H522
SF-268 = test system: SF-268
CCRF-CEM = test system: CCRF-CEM
MCF7 = test system: MCF7
OVCAR-5 = test system: OVCAR-5
HL-60 = test system: HL-60
UACC-62 = test system: UACC-62
PC-3 = test system: PC-3
HT-29 = test system: HT-29
CAKI-1 = test system: CAKI-1
RPMI-8226 = test system: RPMI-8226
NCI-H226 = test system: NCI-H226
A549 = test system: A549
HOP-92 = test system: HOP-92
SN12C = test system: SN12C
EKVX = test system: EKVX
SK-MEL-2 = test system: SK-MEL-2
786-0 = test system: 786-0
NCI/ADR-RES = test system: NCI/ADR-RES
HCC 2998 = test system: HCC 2998
IGROV-1 = test system: IGROV-1
BT-549 = test system: BT-549
U-251 = test system: U-251
MDA-MB-231 = test system: MDA-MB-231
SW-620 = test system: SW-620
HCT-116 = test system: HCT-116
MDA-MB-435 = test system: MDA-MB-435
Malme-3M = test system: Malme-3M
MDA-N = test system: MDA-N
UACC-257 = test system: UACC-257
RXF 393 = test system: RXF 393
OVCAR-8 = test system: OVCAR-8
SF-539 = test system: SF-539
SK-MEL-28 = test system: SK-MEL-28
LOX IMVI = test system: LOX IMVI
UO-31 = test system: UO-31
M14 = test system: M14
SNB-19 = test system: SNB-19
SK-MEL-5 = test system: SK-MEL-5
KM12 = test system: KM12
Hs-578T = test system: Hs-578T
SK-OV-3 = test system: SK-OV-3
T47D = test system: T47D
HOP-62 = test system: HOP-62
SR = test system: SR
ACHN = test system: ACHN
OVCAR-3 = test system: OVCAR-3

`COc1c2occc2c(OC)c2c(=O)c(S(=O)(=O)NC(=O)Nc3ccc(Cl)cc3)coc12` was tested, and the GI50 (HCT-15) was over 10 µM, the GI50 (OVCAR-4) was > 10 µM (inactive) and the GI50 (A498) was > 10 µM (inactive). The GI50 (K562) was > 10 µM (inactive), the GI50 (SF-295) was > 10 µM (inactive) and the GI50 (DU-145) was > 10 µM (inactive). For the same molecule, the GI50 (NCI-H460) was > 10 µM (inactive), the GI50 (NCI-H23) was > 10 µM (inactive) and the GI50 (COLO 205) was > 10 µM (inactive). For the same molecule, the GI50 (TK-10) was > 10 µM (inactive), the GI50 (MOLT-4) was > 10 µM (inactive) and the GI50 (NCI-H522) was > 10 µM (inactive). For the same molecule, the GI50 (SF-268) was > 10 µM (inactive), the GI50 (CCRF-CEM) was > 10 µM (inactive) and the GI50 (MCF7) was > 10 µM (inactive). For the same molecule, the GI50 (OVCAR-5) was > 10 µM (inactive), the GI50 (HL-60) was > 10 µM (inactive) and the GI50 (UACC-62) was > 10 µM (inactive). For the same molecule, the GI50 (PC-3) was > 10 µM (inactive), the GI50 (HT-29) was > 10 µM (inactive) and the GI50 (CAKI-1) was > 10 µM (inactive). For the same molecule, the GI50 (RPMI-8226) was > 10 µM (inactive), the GI50 (NCI-H226) was > 10 µM (inactive) and the GI50 (A549) was > 10 µM (inactive). For the same molecule, the GI50 (HOP-92) was > 10 µM (inactive), the GI50 (SN12C) was > 10 µM (inactive) and the GI50 (EKVX) was > 10 µM (inactive). For the same molecule, the GI50 (SK-MEL-2) was > 10 µM (inactive), the GI50 (786-0) was > 10 µM (inactive) and the GI50 (NCI/ADR-RES) was > 10 µM (inactive). The GI50 (HCC 2998) was > 10 µM (inactive), the GI50 (IGROV-1) was > 10 µM (inactive) and the GI50 (BT-549) was > 10 µM (inactive). The GI50 (U-251) was > 10 µM (inactive), the GI50 (MDA-MB-231) was > 10 µM (inactive) and the GI50 (SW-620) was > 10 µM (inactive). For the same molecule, the GI50 (HCT-116) was > 10 µM (inactive), the GI50 (MDA-MB-435) was > 10 µM (inactive) and the GI50 (Malme-3M) was > 10 µM (inactive). The GI50 (MDA-N) was > 10 µM (inactive), the GI50 (UACC-257) was > 10 µM (inactive) and the GI50 (RXF 393) was > 10 µM (inactive). For the same molecule, the GI50 (OVCAR-8) was > 10 µM (inactive), the GI50 (SF-539) was > 10 µM (inactive) and the GI50 (SK-MEL-28) was > 10 µM (inactive). For the same molecule, the GI50 (LOX IMVI) was > 10 µM (inactive), the GI50 (UO-31) was > 10 µM (inactive) and the GI50 (M14) was > 10 µM (inactive). For the same molecule, the GI50 (SNB-19) was > 10 µM (inactive), the GI50 (SK-MEL-5) was > 10 µM (inactive) and the GI50 (KM12) was > 10 µM (inactive). The GI50 (Hs-578T) was > 10 µM (inactive), the GI50 (SK-OV-3) was > 10 µM (inactive) and the GI50 (T47D) was > 10 µM (inactive). The GI50 (HOP-62) was > 10 µM (inactive), the GI50 (SR) was > 10 µM (inactive) and the GI50 (ACHN) was > 10 µM (inactive). The GI50 (OVCAR-3) was > 10 µM (inactive).
